The values that follow come from US6965039B2, “7-carboxy-flavone derivatives preparation method and therapeutic use” (Negma-Lerads, priority 2000, dated 2005).

SMILES strings stand for the structures.

For one data set, the system named is IL-1 (interleukin 1). In words: Inhibition of IL-1 secretion on PBMC cells (method of Schindler). As to conditions: tests in duplicate. The class given is cell-based. How it is done: (§1) The inhibiting activity on the secretion of inflammatory cytokines of the compounds of the invention was tested in vitro, more particularly on the secretion of IL-1 (interleukin 1) and on IL-6 and TNFα (tumor necrosis factor), which are the main cytokines related to the arthrotic process.
(§2) The tests on these three cytokines were carried out on PBMC (Peripheral Blood Mononuclear Cells) cells according to the method of Schindler (R. Schindler et al., Blood, (1990) 75, 40-47) using cycloheximide (IL-1) and dexamethasone (IL-6, TNFα) as reference products.
(§3) The results of the tests carried out with the flavone derivatives of the invention described in examples 1, 4 and 6 above [sic] are combined in the following table. The tests were carried out in duplicate, at concentrations of 1 and 10 μM. The results are expressed as percentage of inhibition.

The next data set deals with IL-6. In words: Inhibition of IL-6 secretion on PBMC cells (method of Schindler). The class given is cell-based. As to conditions: tests in duplicate. How it is done: as §1, §2, §3
In data set [1] the test system is TNFα (tumor necrosis factor). Kind of data set: Inhibition of TNFα secretion on PBMC cells (method of Schindler). The data set is classed as cell-based. As to conditions: tests in duplicate, read-out: TNFα, percentage of inhibition. The procedure:
as §1, §2, §3

The test system of the next data set is prostaglandins (PGE2). Kind of data set: Secretion of prostaglandins (PGE2) on differentiated HL-60 cells (method of Honda). The class given is cell-based. The procedure:
The effect of the derivatives of the invention on the secretion of prostaglandins (PGE2), which increase articular inflammation, and of leukotriene (LTB4) was measured on differentiated HL-60 cells using the methods of Honda (M. Honda et al., Diabetes Res., (1990) 14, 43-46) and of Bennett (C. F. Bennett et al., Biochem. J., (1993) 289, 33-39), respectively, using indomethacin and nordihydroguaiaretic acid as reference products.

The mark [2] stands for this setting: read-out: IL1β, percentage of inhibition.
Setting [3] is: read-out: IL6, percentage of inhibition.

What is called inhibition is how much of the control response was suppressed. Broadly, the melting point is the temperature, or range, at which the solid turns liquid. On to `O=C(O)c1cc(O)c2c(=O)cc(-c3ccccc3)oc2c1` [Example 1, 5-Hydroxy-2-phenyl-4-oxo-4H-chromene-7-carboxylic acid], for which the melting point is 270 °C (dec.). Further, the inhibition at 1 µM with IL-1 (interleukin 1) (1 μM, read-out: IL1β, percentage of inhibition) came out at 15%. Also, the inhibition at 10 µM with IL-1 (interleukin 1) (setting [2]) worked out at 96%. In addition, in the data set on IL-6 (1 μM, read-out: IL6, percentage of inhibition), the inhibition at 1 µM was 50%. The inhibition at 10 µM in the data set with IL-6 (setting [3]) stood at 98%. For the same compound, in data set [1] (1 μM), the inhibition at 1 µM turned out to be 61%. The inhibition at 10 µM in data set [1] (10 μM) worked out at 32%.
For `COc1ccc(-c2cc(=O)c3c(O)cc(C(=O)O)cc3o2)cc1` [Example 4, 5-Hydroxy-0.2-(4′-methoxyphenyl)-4-oxo-4H-chromene-7-carboxylic acid], the “IL1β, percentage of inhibition” value with IL-1 (interleukin 1) (1 μM) was less than 10%. Also, in the data set with IL-6 (1 μM), the “IL6, percentage of inhibition” value came out at 56%. The “effect on the secretion of prostaglandins” value with prostaglandins (PGE2) is on record as “stimulating the secretion of prostaglandins”.
`O=C(O)c1cc(O)c2c(=O)cc(-c3ccc(C(F)(F)F)cc3)oc2c1` [Example 6, 5-Hydroxy-2-(4′-trifluoromethylphenyl)-4-oxo-4H-chromene-7-carboxylic acid]: the inhibition at 10 µM is 72% with IL-1 (interleukin 1) (setting [2]) and 100% with IL-6 (setting [3]).
